Test results published in the NIST ThermoML archive (doi:10.1021/acs.jced.5b00778).
± gives the expanded uncertainty stated by the source.

Assay: mn = molality of the nth substance listed, in mol/kg
Settings: 298.15 K; for surface tension liquid-gas: Ring tensiometer; for electrical conductivity: 100 kPa, Liquid, Alternating current cell with electrodes

CCCCCCCCCCCCCCCCOCC(O)C[N+](C)(C)CCCCCCCC.[Br-] (stereo not given) + O
Settings	electrical conductivity [S/m]	surface tension liquid-gas [mN/m]
m1 = 2.04e-06	–	69.09 ± 2.2
m1 = 2.63e-06	–	68.55 ± 2.1
m1 = 3.55e-06	–	61.94 ± 2.1
m1 = 3.8e-06	–	60.95 ± 2.1
m1 = 4.07e-06	–	55.95 ± 2.1
m1 = 4.37e-06	–	48.71 ± 2.1
m1 = 5.89e-06	–	44.65 ± 2.1
m1 = 7.94e-06	–	41.6 ± 2.1
m1 = 1.023e-05	–	37.64 ± 2.1
m1 = 0.0067	5.6e-05 ± 6e-06	–
m1 = 0.0076	5.8e-05 ± 6e-06	–
m1 = 0.0086	6.4e-05 ± 8e-06	–
m1 = 0.0095	7.4e-05 ± 8e-06	–
m1 = 0.0105	7.7e-05 ± 8e-06	–
m1 = 0.0114	7.8e-05 ± 9e-06	–
m1 = 0.0124	9.3e-05 ± 1.1e-05	–
m1 = 0.0133	9.6e-05 ± 1.2e-05	–
m1 = 0.0143	0.000114 ± 1.2e-05	–
m1 = 0.0152	0.000111 ± 1.1e-05	–
m1 = 0.0162	0.000121 ± 1.4e-05	–
m1 = 0.0171	0.000132 ± 1.5e-05	–
m1 = 0.0181	0.000144 ± 1.5e-05	–
m1 = 0.019	0.000147 ± 1.6e-05	–
m1 = 0.0209	0.000168 ± 1.8e-05	–
m1 = 0.0219	0.000176 ± 1.9e-05	–
m1 = 0.0229	0.00019 ± 2.1e-05	–
m1 = 0.0238	0.000201 ± 2.1e-05	–
m1 = 0.0248	0.000212 ± 2.2e-05	–

CCCCCCCCCCCCCCOCC(O)C[N+](C)(C)CCCCCCCC.[Br-] (stereo not given) + O
Settings	electrical conductivity [S/m]	surface tension liquid-gas [mN/m]
m1 = 3.388e-06	–	60.85 ± 2.1
m1 = 4.169e-06	–	59.07 ± 2.1
m1 = 5.012e-06	–	58.67 ± 2.1
m1 = 6.761e-06	–	54.53 ± 2.1
m1 = 8.511e-06	–	51.91 ± 2.1
m1 = 1.175e-05	–	47.9 ± 2.1
m1 = 1.514e-05	–	44.86 ± 2.1
m1 = 1.995e-05	–	41.5 ± 2.1
m1 = 2.512e-05	–	39.09 ± 2.1
m1 = 3.388e-05	–	36.16 ± 2.1
m1 = 4.571e-05	–	33.74 ± 2.1
m1 = 0.009	0.000161 ± 1.9e-05	–
m1 = 0.0144	0.000255 ± 2.7e-05	–
m1 = 0.0198	0.000343 ± 3.6e-05	–
m1 = 0.0252	0.000427 ± 4.4e-05	–
m1 = 0.0306	0.000521 ± 5.3e-05	–
m1 = 0.036	0.000636 ± 6.4e-05	–
m1 = 0.0414	0.000683 ± 6.9e-05	–

CCCCCCCCCCCCCC[N+](C)(C)CC(O)COCCCCCCCCCC.[Br-] (stereo not given) + O
Settings	electrical conductivity [S/m]	surface tension liquid-gas [mN/m]
m1 = 2.4e-07	–	70.44 ± 2.2
m1 = 2.82e-07	–	69.87 ± 2.2
m1 = 4.17e-07	–	69.41 ± 2.2
m1 = 5.62e-07	–	65.68 ± 2.1
m1 = 7.24e-07	–	57.18 ± 2.1
m1 = 8.51e-07	–	53.77 ± 2.1
m1 = 1.148e-06	–	48.14 ± 2.1
m1 = 1.413e-06	–	44.06 ± 2.1
m1 = 1.698e-06	–	40.95 ± 2.1
m1 = 2.291e-06	–	35.65 ± 2.1
m1 = 2.818e-06	–	33.63 ± 2.1
m1 = 0.0013	2.8e-05 ± 9e-06	–
m1 = 0.0027	4.9e-05 ± 7e-06	–
m1 = 0.004	4.9e-05 ± 5e-06	–
m1 = 0.0053	5.8e-05 ± 9e-06	–
m1 = 0.0067	8e-05 ± 1.3e-05	–
m1 = 0.008	0.000102 ± 1.2e-05	–
m1 = 0.0093	0.000111 ± 1.2e-05	–
m1 = 0.0107	0.000117 ± 1.5e-05	–
m1 = 0.012	0.000157 ± 2e-05	–
m1 = 0.0133	0.00017 ± 1.7e-05	–
m1 = 0.0147	0.000166 ± 1.8e-05	–
m1 = 0.016	0.000201 ± 2.2e-05	–
m1 = 0.0174	0.000211 ± 2.3e-05	–
m1 = 0.0187	0.000243 ± 2.7e-05	–
m1 = 0.02	0.000261 ± 2.8e-05	–
m1 = 0.0214	0.000284 ± 3e-05	–
m1 = 0.0227	0.000297 ± 3.1e-05	–
m1 = 0.024	0.000319 ± 3.3e-05	–
m1 = 0.0254	0.00033 ± 3.4e-05	–
m1 = 0.0267	0.000361 ± 3.8e-05	–
m1 = 0.028	0.000376 ± 3.8e-05	–

CCCCCCCCCCCCOCC(O)C[N+](C)(C)CCCCCCCC.[Br-] (stereo not given) + O
Settings	electrical conductivity [S/m]	surface tension liquid-gas [mN/m]
m1 = 1.047e-05	–	64.92 ± 2.1
m1 = 1.738e-05	–	60.07 ± 2.1
m1 = 2.089e-05	–	57.65 ± 2.1
m1 = 2.818e-05	–	53.97 ± 2.1
m1 = 3.548e-05	–	52.04 ± 2.1
m1 = 4.898e-05	–	48.46 ± 2.1
m1 = 6.31e-05	–	46.1 ± 2.1
m1 = 8.511e-05	–	42.5 ± 2.1
m1 = 0.0001047	–	39.79 ± 2.1
m1 = 0.0001479	–	36.43 ± 2.1
m1 = 0.0001905	–	33.42 ± 2
m1 = 0.014	0.00023 ± 2.3e-05	–
m1 = 0.028	0.00034 ± 3.5e-05	–
m1 = 0.0561	0.00065 ± 6.5e-05	–
m1 = 0.0841	0.00105 ± 0.00011	–
m1 = 0.1121	0.00117 ± 0.00012	–
m1 = 0.1402	0.00141 ± 0.00014	–
m1 = 0.1682	0.00173 ± 0.00017	–
m1 = 0.1962	0.00195 ± 0.00019	–
m1 = 0.2243	0.00226 ± 0.00023	–

CCCCCCCCCCOCC(O)C[N+](C)(C)CCCCCCCC.[Br-] (stereo not given) + O
Settings	electrical conductivity [S/m]	surface tension liquid-gas [mN/m]
m1 = 2.399e-05	–	63.84 ± 2.1
m1 = 3.388e-05	–	60.78 ± 2.1
m1 = 3.715e-05	–	59.62 ± 2.1
m1 = 7.413e-05	–	53.71 ± 2.1
m1 = 7.59e-05	0.00088 ± 8.8e-05	–
m1 = 0.0001122	–	49.75 ± 2.1
m1 = 0.0001514	–	47 ± 2.1
m1 = 0.0001518	0.00161 ± 0.00016	–
m1 = 0.0001905	–	45.13 ± 2.1
m1 = 0.000235	0.0023 ± 0.00023	–
m1 = 0.000263	–	41.95 ± 2.1
m1 = 0.0003035	0.00316 ± 0.00032	–
m1 = 0.0003715	–	39.03 ± 2.1
m1 = 0.0004553	0.00439 ± 0.00044	–
m1 = 0.0005248	–	35.86 ± 2.1
m1 = 0.000535	0.00496 ± 0.0005	–
m1 = 0.000607	0.00573 ± 0.00057	–
m1 = 0.0007413	–	33.29 ± 2
m1 = 0.0007588	0.00697 ± 0.0007	–
m1 = 0.000835	0.00758 ± 0.00076	–
m1 = 0.0009105	0.00827 ± 0.00083	–
m1 = 0.001062	0.00937 ± 0.00094	–
